Reference: the supplement of paper PMC10307832

Columns and labels:
Test in all cases: relative viability (nuclei count vs DMSO), 5 days (fraction); higher = more cells survive
[1] = compound: CC1=C(C(=O)N2C=CSC2=N1)CCN3CCC(=C(C4=CC=CC=C4)C5=CC=C(C=C5)F)CC3 + O=C(c1cc(Cc2n[nH]c(=O)c3ccccc23)ccc1F)N1CCN(C(=O)C2CC2)CC1 [Olaparib] (partner 8 µM)
Summary of the method: (§1)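 For relative viability, nuclei counts in treated wells were divided by those in vehicle wells. Lung cancer cell lines had been pin-tool dosed in 1536-well plates the day after seeding and cultured for 5 days, then fixed and stained in one step (final 0.05% Triton X-100, 1% formaldehyde, 1 ug/ml Hoechst) and imaged at 4×. Doses were one drug alone or a fixed anchor-drug dose plus five library-drug doses (not always all listed) in √10 steps, and values are duplicate-plate medians.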

[2] = compound: CC1=C(C(=O)N2C=CSC2=N1)CCN3CCC(=C(C4=CC=CC=C4)C5=CC=C(C=C5)F)CC3 + Cc1nc(NC(=O)N2CCC[C@H]2C(N)=O)sc1-c1ccnc(C(C)(C)C(F)(F)F)c1 [Alpelisib] (partner 2 µM)
Summary of the method: as §1

[3] = compound: CC1=C(C(=O)N2C=CSC2=N1)CCN3CCC(=C(C4=CC=CC=C4)C5=CC=C(C=C5)F)CC3 + CC(=O)c1c(C)c2cnc(Nc3ccc(N4CCNCC4)cn3)nc2n(C2CCCC2)c1=O [Palbociclib] (partner 0.5 µM)
Summary of the method: as §1

[4] = compound: CC1=C(C(=O)N2C=CSC2=N1)CCN3CCC(=C(C4=CC=CC=C4)C5=CC=C(C=C5)F)CC3 + Nc1nc2[nH]cc(CCc3ccc(C(=O)N[C@@H](CCC(=O)O)C(=O)O)cc3)c2c(=O)[nH]1 [Pemetrexed] (partner 0.2 µM)
Summary of the method: as §1

Cell Line | relative viability ([1]; first compound 0.08 µM) | relative viability ([1]; first compound 0.253 µM) | relative viability ([1]; first compound 0.8 µM) | relative viability ([1]; first compound 2.53 µM) | relative viability ([1]; first compound 8 µM) | relative viability ([2]; first compound 0.08 µM) | relative viability ([2]; first compound 0.253 µM) | relative viability ([2]; first compound 0.8 µM) | relative viability ([2]; first compound 2.53 µM) | relative viability ([2]; first compound 8 µM) | relative viability ([3]; first compound 0.08 µM) | relative viability ([3]; first compound 0.253 µM) | relative viability ([3]; first compound 0.8 µM) | relative viability ([3]; first compound 2.53 µM) | relative viability ([3]; first compound 8 µM) | relative viability ([4]; first compound 0.08 µM) | relative viability ([4]; first compound 0.253 µM) | relative viability ([4]; first compound 0.8 µM) | relative viability ([4]; first compound 2.53 µM) | relative viability ([4]; first compound 8 µM)
201T | 0.941 | 0.791 | 0.824 | 0.92 | 0.884 | 1.02 | 1.04 | 1.08 | 1.07 | 0.852 | 0.355 | 0.35 | 0.366 | 0.35 | 0.348 | 0.304 | 0.335 | 0.335 | 0.342 | 0.24
A549 | – | 0.212 | 0.385 | 0.36 | 0.151 | 0.915 | 0.923 | 0.747 | 0.871 | 0.275 | – | – | – | – | – | – | – | – | – | –
A-427 | 0.779 | 0.74 | 0.723 | 0.803 | 0.658 | 1.15 | 1.11 | 1.05 | 1.1 | 1.08 | 0.533 | 0.565 | 0.499 | 0.541 | 0.531 | 1.06 | 1.07 | 0.929 | 1.07 | 0.952
ABC-1 | 0.836 | – | 0.99 | 1.01 | 0.536 | 0.989 | 0.935 | 1.08 | 1.09 | 0.605 | 0.579 | – | 0.581 | 0.559 | 0.67 | – | – | – | – | –
BEN | 1.07 | 1.22 | 1.09 | 1.06 | 0.89 | 0.826 | 1.09 | 1.09 | 0.974 | 0.69 | 0.455 | 0.498 | 0.479 | 0.558 | 0.498 | 0.928 | 0.753 | 0.715 | 0.942 | 0.753
CAL-12T | 0.724 | 0.718 | 0.79 | 0.763 | 0.6 | 0.811 | 1.34 | 1.45 | 1.49 | 0.589 | 0.371 | 0.389 | 0.434 | 0.462 | 0.319 | 1.31 | 1.21 | 1.32 | 1.57 | 0.765
COR-L23 | 0.311 | 0.32 | 0.344 | 0.376 | 0.31 | 0.755 | 1.05 | 0.818 | 0.877 | 0.667 | 0.292 | 0.306 | 0.255 | 0.286 | 0.27 | 0.198 | 0.21 | 0.199 | 0.203 | 0.203
COR-L 105 | 0.542 | 0.718 | 0.633 | 0.753 | 0.609 | 0.984 | 1.09 | 1.16 | 1.1 | 0.963 | 0.439 | 0.419 | 0.383 | 0.406 | 0.383 | 1.03 | 1.26 | 1.27 | 1.4 | 0.89
ChaGo-K-1 | 0.451 | 0.415 | 0.411 | 0.458 | 0.416 | – | – | – | – | – | 0.919 | 0.92 | 0.989 | 1.05 | 0.649 | 0.277 | 0.27 | 0.259 | 0.267 | 0.236
EKVX | 0.83 | 0.868 | 0.922 | 0.87 | 0.729 | 0.719 | 0.868 | 1.05 | 1.14 | 0.652 | 0.371 | 0.366 | 0.349 | 0.397 | 0.293 | 0.366 | 0.382 | 0.436 | 0.432 | 0.35
EMC-BAC-2 | 0.46 | 0.468 | 0.468 | 0.522 | 0.46 | 0.639 | 0.673 | 0.806 | 0.824 | 0.588 | 0.497 | 0.494 | 0.493 | 0.46 | 0.506 | 0.379 | 0.482 | 0.49 | 0.461 | 0.386
EPLC-272H | 0.693 | – | 0.911 | 0.758 | 0.742 | – | 0.878 | 1.05 | 0.852 | 0.737 | 0.321 | 0.316 | 0.33 | 0.329 | 0.337 | 0.335 | – | 0.333 | 0.288 | 0.416
H3255 | 0.503 | 0.63 | 0.548 | 0.6 | 0.504 | 0.52 | 0.623 | 0.727 | 0.712 | 0.587 | 0.273 | 0.317 | 0.313 | 0.311 | 0.303 | 0.554 | 0.532 | 0.552 | 0.565 | 0.552
HARA | 0.761 | 0.779 | 0.821 | 0.755 | 0.774 | 0.932 | 0.668 | 1.05 | 0.77 | 0.623 | 0.307 | 0.275 | 0.276 | 0.289 | 0.285 | 0.253 | 0.252 | 0.253 | 0.252 | 0.228
HCC-15 | 0.777 | 0.782 | 0.716 | 0.736 | 0.643 | 0.875 | 0.958 | 0.972 | 1.04 | 0.69 | 0.738 | 0.744 | 0.679 | 0.729 | 0.556 | 0.216 | 0.207 | 0.225 | 0.231 | 0.227
HCC-44 | 1.01 | 1.08 | 1.03 | 1.13 | 0.643 | 0.906 | 0.736 | 0.863 | 0.73 | 0.805 | 0.956 | 0.997 | 1.02 | 1.01 | 0.86 | 0.729 | 0.664 | 0.612 | 0.644 | 0.554
HCC-78 | 0.663 | 0.872 | 0.944 | 0.921 | 0.608 | 0.352 | 0.347 | 0.324 | 0.379 | 0.286 | 0.336 | 0.462 | 0.484 | 0.519 | 0.349 | 0.798 | 0.867 | 0.935 | 0.923 | 0.66
